Key:
[1] = tested on: p53 and p21 in HCT116 NVL^WT tumors; experiment: Pharmacodynamic study: p53 and p21 in HCT116 NVL^WT xenograft tumors; format: in vivo, mouse; conditions: 35 mg/kg IP
Method: Plasma exposure was dose-dependent up to 35 mg/kg (IP injection) reaching a maximum concentration at 17.86 μM. These levels exceed the anti-proliferative IC99 of MM927 in cells expressing either human or mouse NVL. In a subsequent pharmacodynamic (PD) study, we asked if we could assess on-target NVL inhibition via a subsequent p53 and/or p21 induction in tumor xenografts in mice treated with MM927. We implanted HCT116 NVL^WT and NVL^R403W cells subcutaneously on either flank of the mice and evaluated the levels of p53 and p21 in either tumor at various time points after IP administration of 35 mg/kg of MM927.
Pharmacodynamic study: Five million parental HCT116 cells or HCT116 NVL^R403W in a volume of 0.1 mL were implanted using a subcutaneous injection in the left and right side of four-to-eight-week-old male and female NSG mice, respectively. Tumor volumes were measured every 2 to 4 days with calipers. When the tumor diameter reached 0.5 cm in diameter, mice were dosed with 35 mg/kg MM927 or vehicle formulated as 10% DMSO/10% Kolliphor EL/10% Solutal/70% D5W and administered via the intraperitoneal route. At each time point (0, 3, 6, 12, 24 hours post dose), tumors were harvested and flash frozen for Western blot analysis for p53 and p21 as described.

[2] = Drug levels in plasma and tumor at end of efficacy study (NSG mice); format: in vivo, mouse; conditions: 3 hours after the last treatment dose, 35 mg/kg IP twice a day for 21 days
Method: (§1) Having established the kinetics of MM927 mediated NVL inhibition in xenograft tumors, we administered 35 mg/kg MM927 IP twice a day for 21 days to mice harboring tumors derived from either HCT116 NVL wild type or NVL^R403W cells. […] Taken together, we concluded that the potent, and bioavailable analog MM927 reduces tumor growth in mouse xenografts by inhibiting NVL without toxicity.
Pharmacokinetic studies were performed by dosing 6-7 week old CD-1 female mice with analog MM927 formulated as 10% DMSO/10% Kolliphor EL/10% Solutal/70% D5W via the intraperitoneal route. […] The resulting supernatants were evaluated by LC-MS/MS using a Sciex (Framingham, MA) 4500 Triple Quad coupled to a Shimadzu (Columbia, MD) Prominence LC. Briefly, MM927 was detected in multiple reaction monitoring mode (MRM) using the (m+1) transition 488.059/176.1. […] The concentrations of drug in each time-point sample were quantified using Analyst software (Sciex). […] The limit of quantitation (LOQ) was defined as the lowest concentration at which back calculation yielded a concentration within 20% of theoretical and which was above the LOD. Cmax and AUC values were calculated using the noncompartmental analysis tool of Phoenix WinNonLin (Certara/Pharsight, Sunnyvale, CA). […]

HCT116 NVL^WT tumors = experiment: Efficacy study: HCT116 NVL wild type xenografts; format: in vivo, mouse; conditions: 35 mg/kg IP twice a day for 21 days
Method: as §1
Efficacy study: Five million parental HCT116 cells or HCT116 NVL^R403W in a volume of 0.1 mL were implanted in the right flank. Tumor volumes were measured every 2 to 4 days with calipers. Volume is calculated as [(L*W^2)*3.14]/6. When volumes reached ˜110 mm^3, treatment was started with 35 mg/kg MM927 or vehicle control (0.2 mL/mouse) twice a day for 21 days. Mice were euthanized at the end of the 21-day treatment period or when any tumor reached 2 cm in its largest diameter, in agreement with the approved animal protocol. At the end of treatment, blood and tumor tissue were collected for pharmacokinetic analysis, measurement of complete blood counts, and blood chemistry measurements as described. Serum alanine transaminase and blood urea nitrogen were analyzed using VITROS MicroSlide technology.

[3] = tested on: HCT116 control and p53 KO cells; experiment: Cell death by loss in membrane permeability, HCT116 control and p53 KO cells; format: cell-based, human; conditions: five-day treatment

SMILES | p53 and p21 time course in NVL^WT tumor [1] | p53 protein levels in NVL^WT tumor [1] | level in plasma and tumor [2] | endpoint tumor burden, NVL WT (HCT116 NVL^WT tumors) | rate of growth of NVL^WT tumors (HCT116 NVL^WT tumors) | cell death in p53 KO versus control cells [3]
CC#CCN1C(=O)c2ccc(F)cc2Sc2cc(NC(=O)c3ccc4oc(=O)n(C)c4c3)ccc21 [MM927, N-(10-(But-2-yn-1-yl)-3-fluoro-11-oxo-10,11-dihydrodibenzo[b,f][1,4]thiazepin-7-yl)-3-methyl-2-oxo-2,3-dihydrobenzo[d]oxazole-5-carboxamide] | remained elevated at 12 hours and decreased to basal levels by 24 hours | increased 3 hours after injection | micromolar levels | significantly reduced NVL WT tumor burden | significantly reduced the rate of growth | 
COCCN1C(=O)c2ccccc2Sc2cc(NC(=O)c3ccoc3)ccc21 [MM017] |  |  |  |  |  | substantially lower in p53 KO cells

From US20260097047A1, “Small molecule inhibitors of the ribosome biogenesis factor NVL2” (Board of Regents, The University of Texas System, priority 2023, published 2026)
